Assay results from ChEMBL document CHEMBL1201862, “PubChem BioAssay data set” (2004).
One block for each molecule: values may come before it. Activity calls are given as the source filed them.

Legend:
[1] = intracellular Trypanosoma cruzi inhibitors in host cells – cell-based, plate reader, cherry-pick samples, set 3, dose response (AID 651818); format: functional;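 further: compounds incubated with infected cells for about four days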
[2] = test system: P388; assay: cells; format: functional; conditions: Mus musculus
[3] = test system: P388/ADR; assay: cells; format: functional; conditions: Mus musculus
[4] = test system: SN12K1; assay: cells; format: functional; conditions: Homo sapiens
[5] = HEK-293T viability loss after treatment – luminescence, T-cell screen hits, cytotoxicity control for TCR NF-kB inhibitor project, dose response (AID 489026); format: functional, cell-based;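 further: cells exposed to compound about 14 hours before the viability readout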
[6] = target: FAD-linked sulfhydryl oxidase ALR (Homo sapiens, UniProt P55789); assay: ALR-catalysed DTT oxidation blockers – biochemical, H2O2 detection, luminescence, cherry-pick, dose response (AID 493248)
[7] = target: Cytochrome P450 2C9 (Homo sapiens, UniProt P11712)
[8] = target: Cytochrome P450 2C19 (Homo sapiens, UniProt P33261); assay: Cytochrome panel assay with activity outcomes. Panel member name: p450-cyp2c19 Compounds with AC50 equal or less than 10 uM are considered active; format: functional; conditions: read-out: AC50
[9] = test system: BJ; assay: BJ-TERT-LT-ST fibroblast viability loss – cell-based, RAS-independent, luminescence, dose response (AID 1935); format: functional; conditions: Homo sapiens;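 further: BJ fibroblasts immortalized with TERT plus LT and ST oncogenes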
[10] = test system: BJ; assay: BJ-TERT fibroblast viability loss – cell-based, RAS-independent, luminescence, dose response (AID 1933); format: functional; conditions: Homo sapiens
[11] = test system: BJ; assay: cells; format: functional, cell-based; conditions: Homo sapiens
[12] = DRD fibroblast viability loss – cell-based, non-viral oncogenic, luminescence, dose response (AID 1934); format: functional; conditions: Homo sapiens
[13] = HIV-1 AD8 envelope cell-cell fusion blockers – cherry-pick, dose response (AID 652062); format: functional, cell-based;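 further: luciferase signal from cell-cell fusion driven by HIV-1 clade B AD8 Env; potency is for inhibitors of fusion seen as a drop in luminescence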
[14] = blockers of HIV-1 ZM109 envelope-driven cell-cell fusion – HeLa effector, CEM target cells, luciferase, cherry-pick, dose response (AID 652058); format: functional, cell-based;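 further: luciferase signal from HIV-1 Env mediated cell-cell fusion of effector and target cells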
[15] = blockers of HIV-1 envelope-mediated cell-cell fusion – cherry-pick, dose response (AID 652057); format: functional, cell-based
[16] = target: T1, Rac GTPase-activating protein 1 (Homo sapiens, UniProt Q9H0H5); assay: blockers of MgcRacGAP-driven Rac1 GTP hydrolysis – biochemical, ADP Hunter fluorescence, primary and confirmatory, confirmation (AID 624330); format: functional
T1 sequence (Q9H0H5 whole entry): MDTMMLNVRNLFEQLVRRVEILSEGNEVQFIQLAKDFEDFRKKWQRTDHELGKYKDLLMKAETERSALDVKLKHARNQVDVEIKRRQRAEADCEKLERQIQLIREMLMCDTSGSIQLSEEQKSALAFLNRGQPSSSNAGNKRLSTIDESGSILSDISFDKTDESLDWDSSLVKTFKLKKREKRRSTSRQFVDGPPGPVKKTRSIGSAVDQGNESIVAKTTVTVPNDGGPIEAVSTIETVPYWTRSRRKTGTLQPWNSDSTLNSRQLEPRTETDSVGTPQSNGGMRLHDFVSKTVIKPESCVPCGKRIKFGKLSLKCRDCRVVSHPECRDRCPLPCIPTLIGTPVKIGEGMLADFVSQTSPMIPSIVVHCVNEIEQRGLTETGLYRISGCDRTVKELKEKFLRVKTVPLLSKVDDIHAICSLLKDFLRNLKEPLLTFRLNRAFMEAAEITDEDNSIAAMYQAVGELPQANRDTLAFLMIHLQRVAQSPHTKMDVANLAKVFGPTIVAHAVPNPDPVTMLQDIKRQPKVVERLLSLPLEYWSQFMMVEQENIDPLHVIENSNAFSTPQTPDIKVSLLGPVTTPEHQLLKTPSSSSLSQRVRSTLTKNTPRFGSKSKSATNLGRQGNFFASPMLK

[17] = target: Dual specificity tyrosine-phosphorylation-regulated kinase 1A (Rattus norvegicus, UniProt Q63470); format: biochemical, Homo sapiens
[18] = target: Induced myeloid leukemia cell differentiation protein Mcl-1 (Homo sapiens, UniProt Q07820); format: functional
Induced myeloid leukemia cell differentiation protein Mcl-1, sequence (Q07820 whole entry): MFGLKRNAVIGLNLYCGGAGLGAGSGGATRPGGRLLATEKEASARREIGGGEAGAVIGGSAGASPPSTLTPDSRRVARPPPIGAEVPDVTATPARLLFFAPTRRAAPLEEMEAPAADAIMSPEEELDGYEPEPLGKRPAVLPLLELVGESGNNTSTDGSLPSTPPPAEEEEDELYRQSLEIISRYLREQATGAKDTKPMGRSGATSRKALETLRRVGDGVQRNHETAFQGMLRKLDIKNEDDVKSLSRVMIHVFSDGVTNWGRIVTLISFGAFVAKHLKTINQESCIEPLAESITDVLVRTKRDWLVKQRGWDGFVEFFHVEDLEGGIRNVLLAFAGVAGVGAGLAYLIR

FAD-linked sulfhydryl oxidase ALR, sequence (P55789 whole entry): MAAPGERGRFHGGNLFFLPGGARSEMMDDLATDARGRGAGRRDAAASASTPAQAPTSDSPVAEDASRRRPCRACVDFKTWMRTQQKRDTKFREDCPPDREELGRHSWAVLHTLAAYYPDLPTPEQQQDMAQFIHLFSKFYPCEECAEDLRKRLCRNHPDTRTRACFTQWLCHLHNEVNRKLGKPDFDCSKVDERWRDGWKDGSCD
Cytochrome P450 2C9, sequence (P11712 whole entry): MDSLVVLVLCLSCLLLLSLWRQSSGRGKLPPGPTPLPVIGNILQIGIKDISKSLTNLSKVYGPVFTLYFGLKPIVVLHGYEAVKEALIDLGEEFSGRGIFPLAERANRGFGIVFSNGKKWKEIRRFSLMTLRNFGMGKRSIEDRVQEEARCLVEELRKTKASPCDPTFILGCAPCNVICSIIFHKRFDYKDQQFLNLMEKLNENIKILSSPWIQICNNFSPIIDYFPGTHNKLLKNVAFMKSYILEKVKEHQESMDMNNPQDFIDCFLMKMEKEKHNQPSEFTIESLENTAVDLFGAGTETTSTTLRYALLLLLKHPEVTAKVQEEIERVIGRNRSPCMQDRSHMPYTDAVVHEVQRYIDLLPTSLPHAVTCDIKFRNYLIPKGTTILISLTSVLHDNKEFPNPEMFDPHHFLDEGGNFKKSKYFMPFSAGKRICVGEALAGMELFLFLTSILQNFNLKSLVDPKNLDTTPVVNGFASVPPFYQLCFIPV
Cytochrome P450 2C19, sequence (P33261 whole entry): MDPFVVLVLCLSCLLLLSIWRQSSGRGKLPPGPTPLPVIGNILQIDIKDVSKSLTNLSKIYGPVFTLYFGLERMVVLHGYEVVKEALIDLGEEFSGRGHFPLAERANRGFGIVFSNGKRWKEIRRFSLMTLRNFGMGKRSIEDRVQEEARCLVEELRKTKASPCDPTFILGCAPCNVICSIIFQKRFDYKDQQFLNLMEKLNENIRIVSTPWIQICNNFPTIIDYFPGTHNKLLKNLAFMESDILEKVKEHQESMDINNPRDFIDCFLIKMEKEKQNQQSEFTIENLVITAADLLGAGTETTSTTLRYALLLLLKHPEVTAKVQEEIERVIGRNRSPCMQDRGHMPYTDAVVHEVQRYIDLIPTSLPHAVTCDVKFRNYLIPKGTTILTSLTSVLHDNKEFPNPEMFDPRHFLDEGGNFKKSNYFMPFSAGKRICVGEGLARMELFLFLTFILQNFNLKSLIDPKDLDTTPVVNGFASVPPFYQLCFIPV

SMILES: Cc1ccc(S(=O)(=O)Nc2ccc3c(c2)CC(=O)N([C@H](C)CO)C[C@@H](C)[C@@H](CN(C)S(=O)(=O)c2ccc(C)cc2)O3)cc1
AC50 [1]: 4.11 µM (active)

SMILES: CCCCC(NC(=O)CC)C(=O)O (stereo unspecified)
GI50 [2]: > 100 µM (inactive)
GI50 [3]: > 100 µM (inactive)
GI50 [4]: > 100 µM (inactive)

SMILES: Cc1ccccc1NS(=O)(=O)c1ccc(N2CCCC2=O)cc1
IC50 [5]: > 80 µM (inactive)

SMILES: C#CCn1c(=O)c(C#N)c(O)c2cc3ccccc3nc21
GI50 [2]: > 100 µM (inactive)
GI50 [3]: > 100 µM (inactive)
GI50 [4]: > 100 µM (inactive)

AC50 [6]: 0.225 µM (active)
SMILES: O=C1CSC(c2ccccn2)N1c1ccccc1 (stereo unspecified)

AC50 [7]: inconclusive
SMILES: COc1cc(C)c(Br)cc1S(=O)(=O)NCc1ccccc1

AC50 [7]: inconclusive
AC50 [8]: 11.2 µM (inconclusive)
SMILES: Brc1[nH]nc2ccccc12

SMILES: COc1ccc(Cl)cc1NC(=O)CN(C)CC(=O)Nc1ccccc1N1CCOCC1
EC50 [9]: 30.7 µM (active)
EC50 [10]: 3.04 µM (active)
EC50 [11]: 37.1 µM (active)
IC50 [5]: 70.8 µM (inactive)
EC50 [12]: 2.55 µM (active)

SMILES: C[C@@H]1CCCCO[C@@H](CN(C)C(=O)Nc2ccc(C(F)(F)F)cc2)[C@@H](C)CN([C@H](C)CO)C(=O)c2cc(NC(=O)Nc3ccc(F)cc3)ccc2O1
AC50 [1]: 4.68 µM (active)

SMILES: Cc1noc(C)c1S(=O)(=O)N(C)C[C@@H]1Oc2ccc(NC(=O)NC3CCCCC3)cc2CC(=O)N([C@@H](C)CO)C[C@@H]1C
AC50 [13]: 5.37 µM (active)
AC50 [14]: 7.36 µM (active)
AC50 [15]: 9.11 µM (active)

SMILES: C[C@H]1CN([C@@H](C)CO)C(=O)Cc2cc(NC(=O)C3CCCCC3)ccc2O[C@@H]1CN(C)Cc1ccc2c(c1)OCO2
AC50 [1]: 2.81 µM (active)

SMILES: COC(=O)C1OC(Oc2cc(O)c3c(=O)cc(-c4ccc(O)cc4)oc3c2)C(O)C(O)C1O (stereo unspecified)
GI50 [3]: > 35.5 µM (inactive)
GI50 [4]: > 100 µM (inactive)

SMILES: C[C@H]1C/C=C/[C@H]2[C@@H]3O[C@]3(C)[C@@H](C)[C@H]3[C@H](Cc4ccccc4)NC(=O)[C@]32OC(=O)O/C=C/[C@@](C)(O)C1=O [CYTOCHALASIN E]
GI50 [2]: 0.0166 µM (active)
GI50 [4]: < 0.01 µM (active)

SMILES: C[C@@H]1CN([C@H](C)CO)C(=O)Cc2cc(NC(=O)Nc3ccc(C(F)(F)F)cc3)ccc2O[C@@H]1CN(C)Cc1ccncc1
AC50 [1]: 2.05 µM (active)

AC50 [6]: 6.74 µM (active)
SMILES: CC(=O)N1CCN=C1SCc1cccc(F)c1

AC50 [6]: 2.55 µM (active)
IC50 [16]: 126 µM (active)
SMILES: CN(C)c1ccc(C(=O)NC2(N3CCC3=O)CCCC2)cc1

AC50 [17]: 5.88 µM (active)
SMILES: O=S(=O)(O)c1cccc(N=Nc2c(O)ccc3ccccc23)c1

IC50 [18]: 1.26 µM (not active)
SMILES: COc1cnn(-c2ccccc2)c(=O)c1SCc1ccc(Cl)cc1Cl

IC50 [18]: 2.73 µM (not active)
SMILES: Cc1nn(Cc2ccc(F)cc2)c2sc(C(=O)Nc3ccc(N4CCOCC4)cc3N3CCOCC3)cc12

AC50 [6]: 27.2 µM (active)
SMILES: Cc1ccc(N2CCN(C(=O)N3CCCC3)CC2)cc1Cl

SMILES: C[C@H](CO)N1C[C@H](C)[C@H](CN(C)Cc2ccc(Cl)c(Cl)c2)Oc2c(NC(=O)CCCCCC(=O)Nc3ccccc3N)cccc2C1=O
AC50 [1]: 1.65 µM (active)

SMILES: C[C@H](CO)N1C[C@H](C)[C@H](CN(C)C(=O)Nc2ccc(F)cc2)Oc2ncc(C#Cc3ccc(C(F)(F)F)cc3)cc2C1=O
AC50 [1]: 2.59 µM (active)
